Where a SMILES comes first, the peptide text is derived from it. [ ]: non-standard residue; d: D form. The star is where a group is joined. Daunorubicin(13-NOCH2CO) = COc1cccc2c1C(=O)c1c(O)c3c(c(O)c1C2=O)C[C@@](O)(C(C)=NOCC(=O)*)C[C@@H]3O[C@H]1C[C@H](N)[C@H](O)[C@H](C)O1; Nle = CCCC[C@H](N)C(=O)O
Assays:
[1] = tested on: MDA-MB-231 human breast adenocarcinoma cells; test: MTT assay, in vitro cytostatic effect; format: cell-based; details: Homo sapiens, MDA-MB-231, 24 h treatment at 3.125–25 µM, then cultured up to 72 h, mean ± SD, n = 2 independent experiments with four parallels
Procedure: (§1) Cells were distributed into 96-well tissue culture plates with an initial cell number of 5.0 × 10^3 per well. After 24 h incubation at 37 °C, the cells were treated with the compounds in 200 µL final volume containing 1.0 v/v% DMSO and 10% H2O. […] After incubation, the cells were washed twice with a serum-free medium. To determine the in vitro cytostatic effect, the cells were further cultured up to 72 h in a 10% serum-containing medium. A solution of 3-(4,5-dimethylthiazol-2-yl)-2,5-diphenyltetrazolium bromide and MTT-solution, (45 µL, 2 mg/mL, final concentration: […]) were added to each well. The respiratory chain [67] and other electron transport systems reduce MTT, and thereby form non-water-soluble violet formazan crystals within the cell. […] After 3 h of incubation, the cells were centrifuged for 5 min at 1000 g and the supernatant was removed. The obtained formazan crystals were dissolved in DMSO (100 μL) and the optical density (OD) of the samples was measured at λ = 540 and 620 nm, respectively, using ELISA Reader (iEMS Reader, Labsystems, Finland). OD620 values were subtracted from OD540 values. The percentage of cytostasis was calculated by using the following equation:Cytostatic effect (%) = [1 − (ODtreated/ODcontrol)] × 100(1)
(§2) Values of ODtreated and ODcontrol correspond to the optical densities of the treated and the control cells, respectively. In each case, two independent experiments were carried out with four parallel measurements. The 50% inhibitory concentration (IC50) values were determined from the dose–response curves. The curves were defined using Microcal™ Origin 2018 software: cytostasis was plotted as a function of concentration, fitted to a sigmoidal curve, and based on this curve, the half-maximal inhibitory concentration (IC50) value was determined. IC50 represents the concentration of a compound that is required for 50% inhibition in vitro and is expressed in micromolar units.

[2] = tested on: MDA-MB-453 human metastatic epithelial breast carcinoma cells; test: MTT assay, in vitro cytostatic effect; format: cell-based; details: Homo sapiens, MDA-MB-453, 24 h treatment at 3.125–25 µM, then cultured up to 72 h, mean ± SD, n = 2 independent experiments with four parallels
Procedure: as §1, §2

[3] = tested on: PC-3 human prostate adenocarcinoma cells; test: MTT assay, in vitro cytostatic effect; format: cell-based; details: Homo sapiens, 24 h treatment at 3.125–25 µM, then cultured up to 72 h, mean ± SD, n = 2 independent experiments with four parallels
Procedure: as §1, §2

MRC-5 human fibroblasts = test: Toxicity on non-cancerous cells (dose-response curves); format: cell-based; details: Figure S15
Description: The lack of toxicity of the conjugates on healthy cells was checked on MRC-5 human fibroblasts, proving that they are non-toxic on non-cancerous cells (see Supplementary Materials, Figure S15).
Figure S15. Dose-response curves of the PDCs and Dau on MRC-5 human fibroblast cell line. Only […]
Figure S16. Flow cytometry measurements for the uptake of all the PDCs on MDA-MB-231 (A), MDA-MB-453 (B) and PC-3 (C) human cancer cell lines. The percentage of cells containing the Dau-conjugates was evaluated on four concentrations (%, mean ± SD, n= 2). Given that above 12.5 µM the internalisation may not only be receptor-mediated, this concentration was considered to com-pare the uptake of the bioconjugates. […]

mice = details: mouse experimental model; cited from earlier work
Procedure: Before testing the effect of our newly developed PDCs on tumour growth in vivo, we performed a chronic toxicity study to determine the ideal dosage of the compounds. Administration of daunorubicin is shown to cause severe cardiotoxic side effects, therefore, its maximum tolerated dose is 1 mg/kg in the case of our experimental model. However, when conjugated to targeting moieties, its side effects can be reduced; moreover, its tumour inhibition capabilities can be increased.

[4] = tested on: PC-3 human prostatic adenocarcinoma xenograft in NOD-SCID mice; test: In vivo tumour growth inhibition, subcutaneous PC-3 xenograft; design: species or system mouse; details: free drug 1 mg/kg, two treatments, n = 8
Procedure: The testing of the antitumour conjugates was carried out in a murine xenograft model. It was established by inoculating subcutaneously 100 µL of cell suspension of PC-3 prostate cancer cells with a concentration of 2 × 10^7 cells/mL.
Once the tumour volume reached 60 mm^3, mice were randomised and assigned to different groups for each treatment, respectively 0.9% saline as control, free daunorubicin, L5, and L6. Each group consisted of eight mice. Peptide–drug conjugates were injected intraperitoneally every 5th day, five times in total (daunorubicin dosage of 10 mg/kg for each treatment). In the case of free daunorubicin, two treatments were administered at the same time points as the first two treatments with conjugates, with a dosage of 1 mg/kg, the maximum tolerated dose (MTD). Weight and tumour size of mice were monitored throughout the whole experiment, two times per week. On day 33, mice were euthanized, and primary tumour, heart, lung, liver and spleen were harvested and stored in 4% formalin (Molar Chemicals, Halásztelek, Hungary). After 2–3 days of incubation in formalin, tissue samples were examined macroscopically. Organs and primary tumours from the different treatment groups were weighed and inspected under a stereomicroscope to see any occurrent changes in morphology compared to the controls.

[5] = Stability in incomplete (serum-free) DMEM; format: in vitro ADME; details: 25 µM, 37 °C, 600 rpm, LC–MS, n = 2
Procedure: The conjugates were incubated in incomplete DMEM for 3 h (similarly to the internalisation studies) or in 2.5% FBS containing DMEM for 24 h (conditions for the MTT assay). […] No significant loss of L1 and L5 (<20%) or L6 (<30%) was observed after 3 h (see Supplementary Materials, Figure S17).
DMSO stock solutions of the conjugates (2.5 mM) were diluted in DMEM free from or containing 2.5% FBS, to a final concentration of 25 μM. The mixture was incubated and stirred at 37 °C, 600 rpm, and 30 µL aliquots were collected after 0 min, 0.5, 1, 2, 4, 8 and 24 h, in duplicates. Then, to each sample, 90 µL of 0.1% formic acid containing MeCN was added and the samples were frozen at −25 °C for ≥30 min to aid protein precipitation. Large FBS components were removed by centrifugation (15 min, 5000 g, 4 °C). Aliquots of 50 µL supernatant were diluted with an equal volume of ddH2O + 0.1% formic acid and analysed by LC–MS. Control measurements were performed in the same manner (25 μM bioconjugate in 100% ddH2O).

[6] = Stability in mouse plasma; format: in vitro ADME; details: 37 °C, HPLC-MS
Procedure: Due to their low IC50 values and internalisation on the tested cell lines, conjugates L1, L5 and L6 were chosen for investigation of their stability in mouse plasma, as potential candidates for in vivo studies. They were incubated at a concentration of 10 µM, with mouse plasma for 24 h at 37 °C. Samples were collected at 0 h, 30 min, 1 h, 2 h, 4 h, 8 h and 24 h and analysed by HPLC-MS. […] Furthermore, after 2 h, L1 starts to release the toxic metabolite Dau=Aoa-Leu-OH, whereas this happens only after 24 h for L5 and L6, in a considerably low amount (see Supplementary Materials, Figures S18–S20).
The conjugates were dissolved in ddH2O containing 10% DMSO (stock solution: 100 μM) and diluted with mouse plasma to a final concentration of 10 μM. The mixture was incubated and stirred at 37 °C, 600 rpm, and 30 µL aliquots were collected after 0 min, 0.5, 1, 2, 4, 8 and 24 h, in triplicates. Then, to each plasma sample, 90 µL of 0.1% formic acid containing MeCN was added, and the samples were frozen at −25 °C for ≥30 min to aid protein precipitation. Large plasma proteins were removed by centrifugation (15 min, 5000× g, 4 °C). Aliquots of 50 µL supernatant were diluted with an equal volume of ddH2O + 0.1% formic acid and analysed by LC–MS. Control measurements were performed in the same manner (10 μM bioconjugate in 100% ddH2O).

[7] = Metabolism in rat liver lysosomal homogenate; format: in vitro ADME; details: 0.2 M NaOAc pH 5.05, 37 °C, conjugate–lysosomal protein 1:10 (w/w), HPLC-MS, triplicates
Procedure: All the conjugates contain a cathepsin B cleavable spacer, either GFLG or LRRY, to allow the release of the toxic payload in lysosomes after receptor-mediated internalisation. We explored the metabolism of L1, L3, L5 and L6 in rat liver lysosomal homogenate to mimic this situation. The experiment was performed over 72 h, sampling at 0 min, 15 min, 30 min, 1 h, 2 h, 6 h, 24 h and 72 h in triplicates. All the (Dau=Aoa-LRRY)–BBN (7-14) conjugates have a similar degradation profile and they quickly release the active metabolite Dau=Aoa-Leu-OH, which can be detected after 15 min (Figure 3). […] Its signal cannot be detected anymore already after 1 h.
The rat liver lysosomal homogenate was prepared based on our previously published procedure, with small modifications: livers from two male Wistar rats (32.6 g and 41.2 g, respectively) were collected, minced with a knife and homogenised in two volumes of ice-cold 0.3 M sucrose, using a T25 Ultra Turrax homogenizer (∼100 mL). […] The protein concentration was determined by measuring the absorbance at 260 nm and 280 nm, and was calculated using the formula: Concentration (μg/μL) = 1.55 ∗ A280 − 0.76 ∗ A260; it was determined as 71.76 μg/μL. […]
The conjugates (2.5 μg/μL in DMSO, 5 μL) were diluted with 0.2 M NaOAc solution (pH 5.05, 495 μL) to 0.025 μg/μL. […] The composition of the samples was determined by HPLC-MS.

SMILES	IC50 [1] [nM]	IC50 [2] [nM]	IC50 [3] [nM]	Toxicity on MRC-5 human fibroblasts (MRC-5 human fibroblasts)	Maximum tolerated dose (mice) [mg/kg]	Day at which fitness of mice decreased to a critical state [4] [days]	Effect on tumour growth [4]	Loss of conjugate after 3 h [5] [%]	Time after which release of the toxic metabolite Dau=Aoa-Leu-OH starts ([6]; 10 µM, for L5 and L6 in a considerably low amount) [h]	remaining at 8 h, 10 μM ([6]; 600 rpm, n = 3, read-out: Detected fraction after 8 h) [%]	half-life at 10 μM ([6]; 600 rpm, n = 3, read-out: t1/2 in mouse plasma (converted)) [h]	time to release of active metabolite Dau=Aoa-Leu-OH [min]	Time after which the signal of the intact conjugate cannot be detected anymore [7] [h]
COc1cccc2c1C(=O)c1c(O)c3c(c(O)c1C2=O)C[C@@](O)(C(C)=O)C[C@@H]3O[C@H]1C[C@H](N)[C@H](O)[C@H](C)O1 [Dau, daunorubicin, reference compound]	900 ± 60	810 ± 70	750 ± 10	reveals toxicity	1	26	did not significantly reduce tumour growth						
CCCC[C@H](NC(=O)[C@H](CC(C)C)NC(=O)[C@H](Cc1c[nH]cn1)NC(=O)CNC(=O)[C@@H](NC(=O)[C@H](C)NC(=O)[C@H](Cc1c[nH]c2ccccc12)NC(=O)[C@H](CCC(N)=O)NC(=O)[C@H](Cc1ccc(O)cc1)NC(=O)[C@H](CCCNC(=N)N)NC(=O)[C@H](CCCNC(=N)N)NC(=O)[C@H](CC(C)C)NC(=O)CON=C(C)[C@]1(O)Cc2c(O)c3c(c(O)c2[C@@H](O[C@H]2C[C@H](N)[C@H](O)[C@H](C)O2)C1)C(=O)c1c(OC)cccc1C3=O)C(C)C)C(N)=O [L1, (Dau=Aoa)-LRRY-BBN(7-14)[Nle14]] ({Daunorubicin(13-NOCH2CO)}-LRRYQWAVGHL[Nle]-NH2)								< 20	2	20	3.8	< 30	≤ 1

Reference: PMC9967152 (International Journal of Molecular Sciences, 2023)
